The text below walks through data of PubChem BioAssay AID1259407 (Chemical Carcinogenesis Research Information System (CCRIS), 2018).

Active and inactive are the calls of the source. How the calls were made is not given here.

In the data set the test system is CCRIS mutagenicity, Ames/micronucleus/aberration tests. Description: CCRIS mutagenicity studies.
Where [1] appears, read: Test System: AMES SALMONELLA TYPHIMURIUM, Strain/Indicator: TA98, Metabolic Activation: NONE, Method: STANDARD PLATE.
Where [2] appears, read: Test System: AMES SALMONELLA TYPHIMURIUM, Strain/Indicator: TA100, Metabolic Activation: NONE, Method: STANDARD PLATE.
Setting [3] is: Test System: AMES SALMONELLA TYPHIMURIUM, Strain/Indicator: TA98, Metabolic Activation: NONE, Method: PREINCUBATION
Setting [4] is: Test System: AMES SALMONELLA TYPHIMURIUM, Strain/Indicator: TA100, Metabolic Activation: NONE, Method: PREINCUBATION

As to `O=[N+]([O-])c1cccc2c1ccc1cccc([N+](=O)[O-])c12`, the mutagenic call is “active; positive” (Test System: AMES SALMONELLA TYPHIMURIUM, Strain/Indicator: TA98(1,8-DNP6), Metabolic Activation: NONE, Method: STANDARD PLATE); “active; positive” (Test System: AMES SALMONELLA TYPHIMURIUM, Strain/Indicator: TA98(NR), Metabolic Activation: NONE, Method: STANDARD PLATE); “active; positive” under setting [1]; “active; positive” under setting [2]; “active; positive” (Test System: AMES SALMONELLA TYPHIMURIUM, Strain/Indicator: YG1021, Metabolic Activation: NONE, Method: STANDARD PLATE); “active; positive” (Test System: AMES SALMONELLA TYPHIMURIUM, Strain/Indicator: YG1024, Metabolic Activation: NONE, Method: STANDARD PLATE). The mutagenic call reads like this: (Test System: AMES SALMONELLA TYPHIMURIUM, Strain/Indicator: YG1026, Metabolic Activation: NONE, Method: STANDARD PLATE) “active; positive”; (Test System: AMES SALMONELLA TYPHIMURIUM, Strain/Indicator: YG1029, Metabolic Activation: NONE, Method: STANDARD PLATE) “active; positive”.

`COc1cc2c(c(OC)c1CO)C(=O)c1ccccc1C2=O`: the mutagenic call was “inactive; negative” under setting [3]; “inactive; negative” (Test System: AMES SALMONELLA TYPHIMURIUM, Strain/Indicator: TA98, Metabolic Activation: RAT, LIVER, S-9, PCB, Method: PREINCUBATION); “inactive; negative” under setting [4]; “inactive; negative” (Test System: AMES SALMONELLA TYPHIMURIUM, Strain/Indicator: TA100, Metabolic Activation: RAT, LIVER, S-9, PCB, Method: PREINCUBATION).

For `O=[N+]([O-])c1cc(-c2ccc(O)c([N+](=O)[O-])c2)ccc1O`, under setting [3], the mutagenic call was “inactive; negative”.

Turning to `O=C(CC(O)C(=O)OCCBr)OCCBr` (stereo unspecified), the mutagenic call by setting is: under setting [1], “inactive; negative”; under setting [2], “inactive; negative”; (Test System: AMES SALMONELLA TYPHIMURIUM, Strain/Indicator: TA100, Metabolic Activation: RAT, LIVER, S-9, AROCLOR 1254, Method: STANDARD PLATE) “active; positive”.

Take `O=C(Nc1ccccc1)c1cc2ccccc2c(N=Nc2cc(Cl)ccc2Cl)c1O`: the mutagenic call runs as follows: (Test System: AMES SALMONELLA TYPHIMURIUM, Strain/Indicator: TA98, Metabolic Activation: HAMSTER, LIVER, S-9, AROCLOR 1254 (10%), Method: PREINCUBATION) “inactive; negative”; (Test System: AMES SALMONELLA TYPHIMURIUM, Strain/Indicator: TA98, Metabolic Activation: HAMSTER, LIVER, S-9, AROCLOR 1254 (30%), Method: PREINCUBATION) “active; positive”; under setting [3], “inactive; negative”; (Test System: AMES SALMONELLA TYPHIMURIUM, Strain/Indicator: TA98, Metabolic Activation: RAT, LIVER, S-9, AROCLOR 1254 (30%), Method: PREINCUBATION) “inactive; negative”; (Test System: AMES SALMONELLA TYPHIMURIUM, Strain/Indicator: TA100, Metabolic Activation: HAMSTER, LIVER, S-9, AROCLOR 1254 (30%), Method: PREINCUBATION) “inactive; negative”; under setting [4], “inactive; negative”. Besides, the mutagenic call is “inactive; negative” (Test System: AMES SALMONELLA TYPHIMURIUM, Strain/Indicator: TA100, Metabolic Activation: RAT, LIVER, S-9, AROCLOR 1254 (30%), Method: PREINCUBATION) and “active; positive” (Test System: AMES SALMONELLA TYPHIMURIUM, Strain/Indicator: TA1538, Metabolic Activation: HAMSTER, LIVER, S-9, AROCLOR 1254 (30%), Method: PREINCUBATION).

In the case of `N#Cc1ccc([N+](=O)[O-])cc1`, the mutagenic call is “inactive; negative” under setting [3]; “inactive; negative” (Test System: AMES SALMONELLA TYPHIMURIUM, Strain/Indicator: TA98, Method: PREINCUBATION); “inactive; negative” under setting [4]; “inactive; negative” (Test System: AMES SALMONELLA TYPHIMURIUM, Strain/Indicator: TA100, Method: PREINCUBATION); “inactive; negative” (Test System: AMES SALMONELLA TYPHIMURIUM, Strain/Indicator: TA1535, Metabolic Activation: NONE, Method: PREINCUBATION); “inactive; negative” (Test System: AMES SALMONELLA TYPHIMURIUM, Strain/Indicator: TA1535, Method: PREINCUBATION). Besides, the mutagenic call reads like this: (Test System: AMES SALMONELLA TYPHIMURIUM, Strain/Indicator: TA1537, Metabolic Activation: NONE, Method: PREINCUBATION) “inactive; negative”; (Test System: AMES SALMONELLA TYPHIMURIUM, Strain/Indicator: TA1537, Method: PREINCUBATION) “inactive; negative”; (Test System: AMES SALMONELLA TYPHIMURIUM, Strain/Indicator: TA1538, Metabolic Activation: NONE, Method: PREINCUBATION) “inactive; negative”; (Test System: AMES SALMONELLA TYPHIMURIUM, Strain/Indicator: TA1538, Method: PREINCUBATION) “inactive; negative”.

In the case of `N[C@@H](Cc1cc(I)c(Oc2cc(I)c(O)c(I)c2)c(I)c1)C(=O)O`, the mutagenic call (End Point: In vitro micronucleus, Test System: Human peripheral blood lymphocytes, Metabolic Activation: None) was “inactive; negative”.

With `Cc1c(N)nc(C(CC(N)=O)NCC(N)C(N)=O)nc1C(=O)NC(C(=O)NC(C)C(O)C(C)C(=O)NC(C(=O)NCCc1nc(-c2nc(C(=O)NCCc3cnc[nH]3)cs2)cs1)C(C)O)C(OC1OC(CO)C(O)C(O)C1OC1OC(CO)C(O)C(OC(N)=O)C1O)c1cnc[nH]1` (stereo unspecified), the mutagenic call (Test System: AMES SALMONELLA TYPHIMURIUM, Strain/Indicator: TA102, Metabolic Activation: NONE, Method: PREINCUBATION) was “active; positive”.
